We go through 16 molecules from patent US11938128B2, “Small molecule BAX inhibitors and uses thereof” (Albert Einstein College of Medicine, priority 2017, dated 2024).

Where two headings read alike, the source gives them in different places.

Data set [1] has as its target BAX (Homo sapiens, UniProt Q07812). Briefly: liposome release assay, tBID-induced BAX activation in liposomal membranes. In kind it is biochemical. The source says:
FIG. 8. BAI compounds tested in BAX inhibition assay using tBID-induced BAX activation in liposomal membranes.
These compounds were hypothesized, but never shown, to work through BAX inhibition (19, 20). Accordingly, it was first investigated whether several of these small molecules inhibit BAX-mediated permeabilization of artificial membranes of similar lipid composition to the outer mitochondrial membrane (OMM). A liposome release assay (21), in which liposomes that contain a fluorophore are created, was used. Incorporation of tBID-activated BAX into the liposome membrane stimulates release of the fluorophore, providing a system to study BAX-mediated membrane permeabilization in isolation of other mitochondrial and cellular factors.
IC50 were predicted based on of “Normalized inhibition values” correlated with measured IC50 values.

The nature of data set [2]: plasma protein binding, mouse plasma. In kind it is in vitro ADME.
Data set [3] can be described thus: pharmacokinetic properties, half-life in plasma. In kind it is in vivo.
In data set [4] the target is recombinant, purified BAX (Homo sapiens, UniProt Q07812). Put plainly: BAX binding by 1H-NMR and 15N-1H HSQC NMR. To be noted: not shown.
Chain of recombinant, purified BAX (Q07812 whole entry): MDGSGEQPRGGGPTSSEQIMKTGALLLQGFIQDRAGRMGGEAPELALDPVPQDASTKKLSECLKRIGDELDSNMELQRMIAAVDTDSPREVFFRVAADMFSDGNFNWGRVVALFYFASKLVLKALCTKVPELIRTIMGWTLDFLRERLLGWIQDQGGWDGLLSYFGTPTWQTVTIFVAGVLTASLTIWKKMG
The test system of another data set is Adult rat cardiomyocytes. Briefly: hypoxia/reoxygenation-induced death of adult cardiomyocytes. In kind it is cell-based. How it is done:
(§1) FIG. 6A-6C. […] Cell death was assessed using calcein AM (alive) and ethidium homodimer (dead) staining. (C) BAI1 inhibits hypoxia-induced loss of inner mitochondrial membrane potential (Δψm) in neonatal cardiomyocytes.
FIG. 22A-22B. […] Percentage of dead cells represents percentage of EthD positive cells.

Data set [5] addresses T1, BAX (Mus musculus, UniProt Q07813).
T1 construct: from tissue; host or cells: heart (myocardium) after 45 min ischemia/6 h reperfusion
Put plainly: BAX activation during MI/R in vivo, 6A7 antibody immunostaining. Conditions: 45 min ischemia/6 h reperfusion, 6A7 immunostaining. How it is done: Accordingly, the ability of BAI-A1 to inhibit BAX activation during MI/R was tested in vivo (FIG. 7). […] The pharmacokinetics of BAI-A1 were measured in the mouse by injecting 1 mg/kg into a cohort of mice and harvesting plasma and heart tissue 0, 1, 6, and 24 h.

Data set [6] can be described thus: pharmacokinetics of BAI-A1 in the mouse. In kind it is in vivo. To be noted: other: injection (type of injection not given), 1 mg/kg. How it is done:
Accordingly, the ability of BAI-A1 to inhibit BAX activation during MI/R was tested in vivo (FIG. 7). […] This was assessed following 45 min ischemia/6 h reperfusion, the time point that BAX is activated maximally in the absence of drug. It was concluded that BAI-A1 can access myocardial cells and is effective at inhibiting BAX activation during MI/R in vivo. The pharmacokinetics of BAI-A1 were measured in the mouse by injecting 1 mg/kg into a cohort of mice and harvesting plasma and heart tissue 0, 1, 6, and 24 h.

Data set [7] relates to neonatal rat cardiomyocytes (NRCM). Put plainly: hypoxia-induced death of primary neonatal cardiomyocytes (calcein AM / ethidium homodimer). In kind it is cell-based. To be noted: for inhibition of hypoxia-induced neonatal cardiomyocyte death: percentage of EthD positive cells. The procedure: as §1
FIG. 20A-20B. […] Quantification of percentage of TUNEL positive cells. […] BAI-1 dose response. Percentage of dead cells represents percentage of ethidium homodimer-1 (EthD) positive cells.
FIG. 21A-21C. BAI-A1, BAI-A2 and BAI-A21 inhibit cardiomyocyte necrotic cell death. NRCM were pre-treated with varying concentrations of BAI-A1 (A), BAI-A2 (B) or BAI-A21 (C) and cultured under normoxic or hypoxic conditions. Percentage of dead cells represents percentage of EthD positive cells.

Data set [8] relates to mouse embryonic fibroblasts. Briefly: TNFα-induced BAX-mediated apoptotic cell death. In kind it is cell-based. Conditions: data not shown.
The nature of data set [9]: BAI-A22 pharmacokinetics in rats, non-compartmental analysis. In kind it is in vivo. Conditions: rat, plasma, iv, male Sprague Dawley rats, 1 mg/kg intravenously, NCA. How it is done: FIG. 11A-11B. BAI-A22 pharmacokinetics. BAI-A22 was injected intravenously in male Sprague Dawley® rats at 1 mg/kg dose and blood plasma and heart tissue were collected at different time points, and drug levels measured by LC-MS/MS. (A) Average BAI-A22 concentrations in blood plasma. (B) Average BAI-A22 concentrations in heart tissue.
Pharmacokinetic parameters from non-compartmental analysis using WinNonLin software. C0: maximum plasma concentration extrapolated to t=0; tmax: time of maximum plasma concentration; t1/2: half-life; MRTlast: mean residence time, calculated to the last observable time point; CL: clearance; Vss: steady state volume of distribution; AUClast: area under the curve, calculated to the last observable time point; AUC∞: area under the curve, extrapolated to infinity. Materials and Methods for the Chemical Syntheses

The nature of data set [10]: plasma protein binding, rats. In kind it is in vitro ADME. Conditions: rat.
Data set [11] in a line: chronic doxorubicin-induced cardiomyopathy mouse model. In kind it is in vivo. To be noted: doxorubicin 3 mg/kg IP x8, inhibitor 2 mg/kg. The source says:
FIG. 25A-25B. […] (A) Hearts were collected from mice in the chronic doxorubicin model and sectioned to stain for the apoptosis marker, TUNEL. Percentage of TUNEL positive nuclei per field. (B) Hearts were collected from mice in the chronic doxorubicin model and sectioned to immunostain for HMGB1, loss of which indicates necrosis. Percentage of nuclei that lost HMGB1 per field.
Patients typically receive several “cycles” of doxorubicin administered at lower doses. The exact protocol depends on the cancer being treated. For example, some leukemias are treated with 4 cycles of 60 mg/m^2 (which would be the equivalent of 1.5 mg/kg) IV administered every 21-28 days. […] Based on this experience, a chronic protocol was used in which mice receive 3 mg/kg doxorubicin IP every other day×8 doses (i.e. over a two-week period) for a cumulative dose of 24 mg/kg.

Data set [12] is described as follows: acute doxorubicin heart failure model in mice. In kind it is in vivo, mouse. Conditions: doxorubicin 20 mg/kg i.p. single; inhibitor 2 mg/kg i.p. single.
Data set [13] relates to mouse embryonic fibroblasts. Briefly: apoptosis in mouse embryonic fibroblasts (FIG. 18). In kind it is cell-based. Conditions: doxorubicin-induced per text, STS or ABT-737 per legend. The text has this:
FIG. 18. […] Apoptosis was induced with either staurosporine (STS) or pro-apoptotic ABT-737 drug.

In data set [14] the target is T1, BAX. Briefly: STS-induced BAX translocation to mitochondria (immunostaining of BAX puncta). In kind it is cell-based. Conditions: data not shown. The procedure:
A key event in BAX activation is exposure of α helix 9 containing a transmembrane domain that inserts tightly into the outer mitochondrial membrane (OMM). BAX insertion into the OMM can be assessed by treating isolated mitochondria with strong alkali, which separates loosely attached proteins from mitochondria but fails to extract membrane-inserted proteins. […] One important result of BAX conformational activation is its translocation from cytosol to mitochondria. […] Translocation was assessed by immunostaining for mitochondrial BAX puncta. […] (Data not shown.)

The mark [15] stands for this setting: liposome release, minimum of 4 inhibitor concentrations around the IC50, read-out: Measured IC 50/μM.
Setting [16] is: predicted from normalized inhibition values (5 and 10 μM, normalized to BAI1) correlated with measured IC50 values, read-out: Predicted IC50/μM.

Chain of BAX (Homo sapiens, UniProt Q07812) (Q07812 whole entry): as above
T1 sequence (Q07813 whole entry, the tested form may be a part): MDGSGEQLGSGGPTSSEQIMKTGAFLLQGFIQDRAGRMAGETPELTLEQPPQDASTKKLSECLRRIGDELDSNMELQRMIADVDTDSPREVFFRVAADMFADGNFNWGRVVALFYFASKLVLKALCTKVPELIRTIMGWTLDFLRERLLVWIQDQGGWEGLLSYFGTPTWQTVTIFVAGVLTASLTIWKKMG

`OC(CN1CCNCC1)Cn1c2ccc(C(F)(F)F)cc2c2cc(C(F)(F)F)ccc21` (stereo not drawn) [BAI-A18]: at BAX [1] (setting [15]), the IC50 was 15 µM.

In the case of `Cc1ccc2c(c1)c1cc(C)ccc1n2CC(O)CN1CCNCC1` (stereo not drawn) [BAI-A17], the IC50 at BAX [1] (setting [15]) was found to be 27 µM.

On to `O=C(O)CCn1c2ccc(Br)cc2c2cc(Br)ccc21` [BAI-A11], for which the IC50 at BAX [1] (setting [16]) is 10.4 µM.

Molecule `OC(CN1CCNCC1)Cn1c2ccccc2c2ccccc21` (stereo not drawn) [BAI-A1] had a fraction unbound in [2] of 0.106. Also, the IC50 is 40 µM at BAX [1] (setting [15]) and more than 20 µM at BAX [1] (setting [16]). Further, the half-life in data set [3] was 210 min; in data set [6] (heart tissue, read-out: half-life in heart tissue (converted)), approximately 210 min; in data set [6] (plasma, read-out: half-life in plasma (converted)), approximately 210 min. Moreover, the “BAX binding relative to BAI-1” value in data set [4] is on record as “less BAX binding than BAI-1”. Further, the “inhibition of adult cardiomyocyte necrosis” value in the data set with Adult rat cardiomyocytes (hypoxia and reoxygenation (H/R)) is reported as “inhibit necrosis in cardiomyocytes in a dose-dependent manner”. In addition, the “ability to protect adult cardiomyocytes against hypoxia/reoxygenation, versus BAI-1” value with Adult rat cardiomyocytes (not shown) was “only modestly decreased”. Further, the “BAX conformational activation in vivo” value on BAX [5] was “potently blocks BAX conformational activation”. The “ability to protect neonatal cardiomyocytes against hypoxia, versus BAI-1” value in data set [7] (not shown) is on record as “only modestly decreased”. Besides, the “inhibition of hypoxia-induced neonatal cardiomyocyte death” value in data set [7] is “inhibit necrosis in cardiomyocytes in a dose-dependent manner”.

On to `OC(CN1CCNCC1)CN(c1ccccc1)c1ccc(Br)cc1` (stereo not drawn) [BAI-A22, 1-((4-bromophenyl)(phenyl)amino)-3-(piperazin-1-yl)propan-2-ol], for which, in data set [8], the nuclear fragmentation entry is reported as “Nuclear fragmentation was also inhibited”. Besides, at BAX [1] (setting [15]), the IC50 is 11 µM. The half-life in data set [3] is 300 min. The AUC(0-t) in data set [9] (parameter and unit are drawings, read-out: AUClast: area under the curve, calculated to the last observable time point) is 390 ± 42.7 ng·h/mL. The MRT last in [9] (parameter and unit are drawings, read-out: MRTlast: mean residence time, calculated to the last observable time point) is 2.15 h. For the same molecule, the Tmax in [9] (parameter and unit are drawings, read-out: tmax: time of maximum plasma concentration) amounted to 0 h. The Vd in [9] (parameter is a drawing, read-out: Vss: steady state volume of distribution) was 10.5 L/kg. Moreover, in [9] (unit is a drawing), the AUC(0-inf) is 524 ng·h/mL, the peak concentration (Cmax) is 318 ng/mL, the clearance is 31.8 mL/min/kg and the half-life is 302 min. For the same molecule, the C0 in [9] (unit is a drawing, read-out: C0: maximum plasma concentration extrapolated to t=0) was 318 ng/mL. In addition, the fraction unbound in data set [10] was 0.044. Besides, the “cardiac dysfunction (fractional shortening, ejection fraction, systolic wall thickening)” value in data set [11] was “significantly protected the heart from cardiac dysfunction”. Also, the “heart function (ejection fraction) in doxorubicin-treated mice” value in data set [12] was “therapeutically effective”. Moreover, the “apoptosis in mouse embryonic fibroblasts” value in data set [13] is listed as “inhibits doxorubicin-induced apoptosis in mouse embryonic fibroblasts”. Besides, the “BAX translocation to the mitochondria” value on BAX [14] is “A similar result was observed”. In addition, the “inhibition of hypoxia-induced neonatal cardiomyocyte death” value in [7] is “potently inhibits primary neonatal cardiomyocyte death induced by hypoxia”.

`OCC(O)Cn1c2ccc(Br)cc2c2cc(Br)ccc21` (stereo not drawn) [BAI-A10]: on BAX [1] (setting [16]), the IC50 is 10.8 µM.

In the case of `OCCN(CCO)CC(O)CN1c2ccccc2Sc2ccccc21` (stereo not drawn) [BAI-A14], the IC50 at BAX [1] (setting [16]) is 15.3 µM.

With `OC(CN1CCNCC1)Cn1c2ccc(F)cc2c2cc(F)ccc21` (stereo not drawn) [BAI-A16], at BAX [1] (setting [15]), the IC50 amounted to 18 µM.

Take `OCCN(CCO)CC(O)Cn1c2ccc(Cl)cc2c2cc(Cl)ccc21` (stereo not drawn) [BAI-A9]: the IC50 at BAX [1] (setting [16]) is 9.7 µM.

For `CN1CCN(CC(O)CN2c3ccccc3Sc3ccccc32)CC1` (stereo not drawn) [BAI-A13], the IC50 at BAX [1] (setting [15]) was 13 µM; at BAX [1] (setting [16]), 13.8 µM.

Take `OC(CN1CCNCC1)CN(c1ccc(Br)cc1)c1ccc(Br)cc1` (stereo not drawn) [BAI-A21]: at BAX [1] (setting [15]), the IC50 worked out at 4.5 µM. The “inhibition of hypoxia-induced neonatal cardiomyocyte death” value in data set [7] is listed as “inhibit necrosis in cardiomyocytes in a dose-dependent manner”.

For the molecule `Cc1cn(CC(O)CN2CCNCC2)c2ccccc12` (stereo not drawn) [BAI-A20], the IC50 on BAX [1] (setting [15]) was more than 100 µM. Besides, the “inhibition of hypoxia-induced neonatal cardiomyocyte death” value in [7] is on record as “does not”.

In the case of `OCCN1CCN(CCCN2c3ccccc3Sc3ccccc32)CC1` [BAI-A15], the IC50 at BAX [1] (setting [15]) was 6 µM; at BAX [1] (setting [16]), 11.7 µM.

On to `Cc1ccc(N(CC(O)CN2CCNCC2)c2ccc(C)cc2)cc1` (stereo not drawn) [BAI-A19], for which the IC50 at BAX [1] (setting [15]) stood at 26 µM. Further, the “BAX conformational activation in vivo” value on BAX [5] is listed as “inhibition of BAX activation in vivo”. In addition, the “inhibition of hypoxia-induced neonatal cardiomyocyte death” value in data set [7] was “potently inhibits primary neonatal cardiomyocyte death induced by hypoxia”.

Turning to `OC(CN1CCN(CCCc2ccccc2)CC1)Cn1c2ccc(Br)cc2c2cc(Br)ccc21` (stereo not drawn) [BAI-3], the “inhibition of membrane permeabilization induced by tBID-activated BAX” value against BAX [1] (FIG. 2) was “not effective to inhibit tBID-induced BAX activation”. In addition, the “fluorophore release by compound alone” value at BAX [1] (compound alone, without BAX/tBID) is listed as “do not stimulate fluorophore release”.

Take `OCCNCC(O)Cn1c2ccc(Br)cc2c2cc(Br)ccc21` (stereo not drawn) [BAI-A12]: the IC50 at BAX [1] (setting [16]) was 8.8 µM.
